Reference: PMC6640931 (ACS Omega, 2017)
Several values for one entry are separate records, joined by “and”; a condition that tells them apart may be missing. Identical values can stand only once.

How the values were obtained:
[1] = Thermogravimetric analysis; type: physicochemical; settings: under nitrogen, 5 °C/min
[2] = Equilibrium solubility in deionized water; settings: for solubility, acyclovir active: DI water (pH 6.92), room temperature; for solubility: DI water (pH = 6.92)
[3] = Solubility in simulated body fluids; type: physicochemical
[4] = cited from earlier work
[5] = cited from earlier work; remark: listed apart in the source

Structure (SMILES) | T5% (decomposition of 5% of the sample), TGA [1] | solubility, acyclovir active [2] | solubility [2] | also measured
C[N+](C)(C)CCO.Nc1nc2c(ncn2COCCO)c(=O)[nH]1 [[Cho][Acy] (1), Choline Acyclovir] | 131 °C | – | – | –
CCCCC(CC)COC(=O)CC(C(=O)OCC(CC)CCCC)S(=O)(=O)O.Nc1nc2c(ncn2COCCO)c(=O)[nH]1 (stereo not drawn) [[H2Acy][Doc] (6), Acyclovir Docusate] | 122.1 °C | 2.948(4) mg active/mL | 2.9 mg acyclovir active/mL | –
CCCCCCCCCCCCCCCC[N+](C)(C)C.Nc1nc2c(ncn2COCCO)c(=O)[n-]1 [[N1,1,1,16][Acy] (4), Hexadecyltrimethylammonium Acyclovir] | – | 101.3(5) mg active/mL | 101.3 mg acyclovir active/mL | –
CCCC[N+](CCCC)(CCCC)CCCC.Nc1nc2c(ncn2COCCO)c(=O)[n-]1 [[N4,4,4,4][Acy] (3), Tetrabutylammonium Acyclovir] | – | 213.7 mg active/mL | 213.7 mg acyclovir active/mL | solubility, acyclovir active ([3]; PBS, pH 7.4): 220(20) mg active/mL; solubility, acyclovir active ([3]; SGF, pH 1.2): 170(20) mg active/mL; solubility, acyclovir active ([3]; SIF, pH 6.8): 140(10) mg active/mL; acyclovir active delivered relative to acyclovir itself ([3]; across the three media (PBS, SIF, SGF), depending on the medium): ca. 150 times
Nc1nc2c(ncn2COCCO)c(=O)[nH]1 [acyclovir (3Acy·2H2O), 9-[(2-hydroxyethoxy)methyl]guanine, reference compound] | 240.1 °C | – | – | solubility in water ([4]; at 22–25 °C): 1200 to 1600 µg/mL; solubility ([3]; simulated intestinal fluid (SIF), pH 6.8, thermodynamic from solid): 4440 µM and 1000 µg/mL
C[N+](C)(C)CCO.Cc1ccc(C(=O)c2ccc(CC(=O)[O-])n2C)cc1 [choline tolmetin] | – | – | – | water solubility of choline salt relative to neutral form [4]: 8000 times
CC(C)[C@H](N)C(=O)OCCOCn1cnc2c(=O)[nH]c(N)nc21 [valacyclovir] | – | – | – | oral bioavailability [5]: ca. 55%; oral bioavailability relative to acyclovir [5]: 3 times
